Calls of active or inactive are those of the source. How the calls were made is not given here.
System: GENE-TOX genotoxicity assays, various organisms and cells
Assay: GENE-TOX mutagenicity studies
Conditions: for call: Assay Type: In vivo carcinogenicity studies
[1] = Species/Cell Type: Chinese hamster ovary (CHO) cells, Assay Type: Forward gene mutation at the HPRT locus, Assay Code: CHO+, Evaluation Type: Evaluation B (Post-1980)
[2] = Species/Cell Type: Escherichia coli polA (W3119 vs P3478), Assay Type: Rec-assay, DNA effects (bacterial DNA repair), Assay Code: RE1+, Evaluation Type: Evaluation A (Pre-1980)
[3] = Species/Cell Type: Mammalian polychromatic erythrocytes, Assay Type: Micronucleus test, chromosome aberrations, Assay Code: MNTT, Evaluation Type: Evaluation B (Post-1980)
[4] = Species/Cell Type: Salmonella typhimurium (one or more of the five standard strains: TA98, TA100, TA1535, TA1537, and TA1538), Assay Type: Histidine reverse gene mutation, Ames assay, Assay Code: SALT, Evaluation Type: Evaluation A (Pre-1980)
[5] = Species/Cell Type: Saccharomyces cerevisiae, Assay Type: Forward gene mutation, Assay Code: YEF+, Evaluation Type: Evaluation A (Pre-1980)
[6] = Species/Cell Type: Saccharomyces cerevisiae, Assay Type: Mitotic recombination or gene conversion, Assay Code: YEC-, Evaluation Type: Evaluation A (Pre-1980)
[7] = Species/Cell Type: Saccharomyces cerevisiae, Assay Type: Mitotic recombination or gene conversion, Assay Code: YEH+, Evaluation Type: Evaluation A (Pre-1980)
[8] = Species/Cell Type: Drosophila melanogaster, Assay Type: Sex-linked recessive lethal gene mutation, Assay Code: SRLT, Evaluation Type: Evaluation A (Pre-1980)
[9] = Species/Cell Type: Fischer rat embryo (RLV/1706) cells, Assay Type: Cell transformation, viral enhanced, Assay Code: CTR+, Evaluation Type: Evaluation A (Pre-1980)
[10] = Species/Cell Type: Nonhuman, Assay Code: CCGT, Evaluation Type: Evaluation A (Pre-1980)
[11] = Species/Cell Type: Nonhuman, Assay Type: Sister-chromatid exchange (SCE) in vitro, Assay Code: SC2+D, Dose Response: With dose response, Evaluation Type: Evaluation B (Post-1980)
[12] = Species/Cell Type: Syrian hamster embryo (SHE) cells, Assay Type: Cell transformation, clonal assay, Assay Code: CTC-, Evaluation Type: Evaluation A (Pre-1980)

## Cl.[Pt]
Species/Cell Type: Syrian hamster embryo (SA7/SHE) cells, Assay Type: Cell transformation, viral enhanced, Assay Code: CT7+, Evaluation Type: Evaluation A (Pre-1980)
  mutagenic call: active; positive

## CCCCCC(=O)N(C)N=O
Species/Cell Type: Saccharomyces cerevisiae, Assay Type: Mitotic recombination or gene conversion, Assay Code: YEC+, Evaluation Type: Evaluation A (Pre-1980)
  mutagenic call: active; positive

## CC(=O)Nc1ccc(-c2ccc(NO)cc2)cc1
[1]
  mutagenic call: active; positive

## OCl
[2]
  mutagenic call: active; positive
Species/Cell Type: Human lymphocytes or leukocytes, Assay Type: Chromosome aberrations in vitro, Assay Code: CY7+D, Dose Response: With dose response, Evaluation Type: Evaluation A (Pre-1980)
  mutagenic call: active; positive
Species/Cell Type: Human, Assay Type: Sister-chromatid exchange (SCE) in vitro, Assay Code: SC1+, Evaluation Type: Evaluation B (Post-1980)
  mutagenic call: active; positive
[3]
  mutagenic call: no conclusion
Species/Cell Type: Nonhuman, Assay Type: Chromosome aberrations in vitro, Assay Code: CY&+D, Dose Response: With dose response, Evaluation Type: Evaluation A (Pre-1980)
  mutagenic call: active; positive
[4]
  mutagenic call: no conclusion

## COC1=C2C[C@@H](C)C[C@H](OC)[C@H](O)[C@@H](C)/C=C(\C)[C@H](OC(N)=O)[C@@H](OC)/C=C\C=C(/C)C(=O)NC(=CC1=O)C2=O
Species/Cell Type: Fischer rat embryo (RLV/1706) cells, Assay Type: Cell transformation, viral enhanced, Assay Code: CTR-, Evaluation Type: Evaluation A (Pre-1980)
  mutagenic call: inactive; negative

## Oc1cc(Cl)ccc1Oc1ccc(Cl)cc1Cl
[3]
  mutagenic call: no conclusion
Species/Cell Type: Mouse, Sex: Female, Assay Type: Spot test, gene mutation, Assay Code: MST-, Evaluation Type: Evaluation A (Pre-1980)
  mutagenic call: inactive; negative
[5]
  mutagenic call: active; positive
[6]
  mutagenic call: inactive; negative
[7]
  mutagenic call: active; positive

## c1ncncn1
[8]
  mutagenic call: no conclusion

## COc1ccc2[nH]c3c(C)c4ccncc4c(C)c3c2c1
[1]
  mutagenic call: active; positive

## NC[C@@H]1OC(O[C@H]2[C@@H](O)[C@H](O[C@@H]3[C@@H](O)[C@H](N)C[C@H](N)[C@H]3O[C@H]3O[C@H](CN)[C@@H](O)[C@H](O)[C@H]3N)O[C@@H]2CO)[C@H](N)[C@@H](O)[C@@H]1O (stereo partly specified)
Species/Cell Type: Rat, Sex: Male, Assay Type: Sperm morphology, Assay Code: SPA+, Evaluation Type: Evaluation A (Pre-1980)
  mutagenic call: active; positive

## Cc1ccc2cc3c(ccc4cc(C)ccc43)cc2c1
[8]
  mutagenic call: no conclusion

## Cc1ccc2cccc([N+](=O)[O-])c2n1
Species/Cell Type: Salmonella typhimurium (one or more of the five standard strains: TA98, TA100, TA1535, TA1537, and TA1538), Assay Type: Histidine reverse gene mutation, Ames assay, Assay Code: SAL+, Evaluation Type: Evaluation A (Pre-1980)
  mutagenic call: active; positive

## Nc1cccc2c(N)cccc12
Species/Cell Type: Nonhuman, Assay Code: CCG+, Evaluation Type: Evaluation A (Pre-1980)
  call: active; positive

## O=S(=O)(O)c1ccc2c(N=Nc3ccc(S(=O)(=O)O)c4ccccc34)c(O)ccc2c1
[6]
  mutagenic call: inactive; negative

## C=C/C=C/Cl
Species/Cell Type: Drosophila melanogaster, Assay Type: Sex-linked recessive lethal gene mutation, Assay Code: SRL+, Evaluation Type: Evaluation A (Pre-1980)
  mutagenic call: active; positive

## NO
Species/Cell Type: Allium cepa, Assay Type: Chromosome aberrations, Assay Code: ALC+D, Dose Response: With dose response, Evaluation Type: Evaluation A (Pre-1980)
  mutagenic call: active; positive
Species/Cell Type: Arabidopsis species, Assay Type: Gene mutation, Assay Code: ARM-, Evaluation Type: Evaluation A (Pre-1980)
  mutagenic call: inactive; negative
Species/Cell Type: Drosophila melanogaster, Assay Type: Aneuploidy, sex chromosome gain, chromosome aberrations, Assay Code: DAGT, Evaluation Type: Evaluation A (Pre-1980)
  mutagenic call: no conclusion
Species/Cell Type: Drosophila melanogaster, Assay Type: Aneuploidy, whole sex chromosome loss, chromosome aberrations, Assay Code: DAC-M, Evaluation Type: Evaluation A (Pre-1980)
  mutagenic call: inactive; negative
[8]
  mutagenic call: no conclusion
[2]
  mutagenic call: active; positive
[9]
  mutagenic call: active; positive
Species/Cell Type: Glycine max (soybean), Assay Type: Gene mutation, Assay Code: GLM-, Evaluation Type: Evaluation A (Pre-1980)
  mutagenic call: inactive; negative
Species/Cell Type: Human diploid fibroblasts, Assay Type: Unscheduled DNA synthesis (UDS) in vitro, DNA effects, Assay Code: UDH-, Evaluation Type: Evaluation A (Pre-1980)
  mutagenic call: inactive; negative
Species/Cell Type: Human lymphocytes or leukocytes, Assay Type: Chromosome aberrations in vitro, Assay Code: CY7-, Evaluation Type: Evaluation A (Pre-1980)
  mutagenic call: inactive; negative
Species/Cell Type: Mouse (BALB/c-3T3) cells, Assay Type: Cell transformation, Assay Code: CTB-, Evaluation Type: Evaluation A (Pre-1980)
  mutagenic call: inactive; negative
Species/Cell Type: Neurospora crassa, Assay Type: Forward gene mutation, Assay Code: NEF+, Evaluation Type: Evaluation A (Pre-1980)
  mutagenic call: active; positive
[10]
  call: no conclusion
[11]
  mutagenic call: active; positive
[5]
  mutagenic call: active; positive
[7]
  mutagenic call: active; positive
Species/Cell Type: Salmonella typhimurium (one or more of the five standard strains: TA98, TA100, TA1535, TA1537, and TA1538), Assay Type: Histidine reverse gene mutation, Ames assay, Assay Code: SAL-, Evaluation Type: Evaluation A (Pre-1980)
  mutagenic call: inactive; negative
Species/Cell Type: Schizosaccharomyces pombe, Assay Type: Forward gene mutation, Assay Code: YEY+, Evaluation Type: Evaluation A (Pre-1980)
  mutagenic call: active; positive
[12]
  mutagenic call: inactive; negative
Species/Cell Type: Vicia faba, Assay Type: Chromosome aberrations, Assay Code: VIC+, Evaluation Type: Evaluation A (Pre-1980)
  mutagenic call: active; positive

## [Cl][W]([Cl])([Cl])([Cl])([Cl])[Cl]
Species/Cell Type: Syrian hamster embryo (SA7/SHE) cells, Assay Type: Cell transformation, viral enhanced, Assay Code: CT7-, Evaluation Type: Evaluation A (Pre-1980)
  mutagenic call: inactive; negative

## O=NN(CCCCO)c1ccccc1
[4]
  mutagenic call: no conclusion

## C[C@H](CCC(=O)O)[C@H]1CC[C@H]2[C@@H]3CC[C@@H]4C[C@H](O)CC[C@]4(C)[C@H]3CC[C@]12C
[9]
  mutagenic call: active; positive
Species/Cell Type: Syrian hamster embryo (SHE) cells, Assay Type: Cell transformation, clonal assay, Assay Code: CTCT, Evaluation Type: Evaluation A (Pre-1980)
  mutagenic call: no conclusion

## COCCOS(C)(=O)=O
Species/Cell Type: Arabidopsis species, Assay Type: Gene mutation, Assay Code: ARM+D, Dose Response: With dose response, Evaluation Type: Evaluation A (Pre-1980)
  mutagenic call: active; positive
Species/Cell Type: Hordeum vulgare (barley), Assay Type: Chromosome aberrations, Assay Code: HOC+D, Dose Response: With dose response, Evaluation Type: Evaluation A (Pre-1980)
  mutagenic call: active; positive

## CCCCN(CC(=O)O)N=O
[4]
  mutagenic call: no conclusion

## Cc1c(F)c2ccccc2c2ccc3ccccc3c12
[4]
  mutagenic call: no conclusion

## O=S(=O)(O)c1cccc(Nc2nc(Nc3ccc(/C=C/c4ccc(Nc5nc(Nc6cccc(S(=O)(=O)O)c6)nc(N(CCO)CCO)n5)cc4S(=O)(=O)O)c(S(=O)(=O)O)c3)nc(N(CCO)CCO)n2)c1
Species/Cell Type: Nonhuman, Assay Type: Sister-chromatid exchange (SCE) in vitro, Assay Code: SC2T, Evaluation Type: Evaluation A (Pre-1980)
  mutagenic call: no conclusion

## Cc1c2c(c(CO)c3ccc4ccccc4c13)C=C[C@H](O)[C@H]2O
[10]
  call: no conclusion

## c1ccc2c(c1)-c1ccccc1C1OC21 (stereo unspecified)
Species/Cell Type: Mouse prostate cells, Assay Type: Cell transformation, Assay Code: CTM-, Evaluation Type: Evaluation A (Pre-1980)
  mutagenic call: inactive; negative
Species/Cell Type: Syrian hamster embryo (SHE) cells, Assay Type: Cell transformation, clonal assay, Assay Code: CTC+, Evaluation Type: Evaluation A (Pre-1980)
  mutagenic call: active; positive

## CN(N=O)C(=O)Nc1ccc(Cl)cc1
[11]
  mutagenic call: active; positive

## [Cr]
[10]
  call: no conclusion

## COc1ccc2c3c([nH]c2c1)[C@H](CC(C)(C)O)N1C(=O)[C@@H]2CCCN2C(=O)[C@]1(O)[C@H]3O
[4]
  mutagenic call: no conclusion

## CCCCOCCOCCOCc1cc2c(cc1CCC)OCO2
Species/Cell Type: Nonhuman, Assay Code: CCG-L, Evaluation Type: Evaluation A (Pre-1980)
  call: inactive; negative

## CCOP(=O)(OCC)Oc1nc(Cl)c(Cl)cc1Cl
Species/Cell Type: Nonhuman, Assay Type: Sister-chromatid exchange (SCE) in vitro, Assay Code: SC2T, Evaluation Type: Evaluation B (Post-1980)
  mutagenic call: no conclusion
Species/Cell Type: Nonhuman, Assay Type: Sister-chromatid exchange (SCE) in vivo, Assay Code: SC3-, Evaluation Type: Evaluation B (Post-1980)
  mutagenic call: inactive; negative

## Cc1cccc2cc3c(ccc4ccccc43)cc12
Species/Cell Type: Nonhuman, Assay Code: CCG+L, Evaluation Type: Evaluation A (Pre-1980)
  call: active; positive
Species/Cell Type: Nonhuman, Assay Type: Sister-chromatid exchange (SCE) in vitro, Assay Code: SC2+, Evaluation Type: Evaluation B (Post-1980)
  mutagenic call: active; positive
Species/Cell Type: Salmonella typhimurium (one or more of the five standard strains: TA98, TA100, TA1535, TA1537, and TA1538), Assay Type: Histidine reverse gene mutation, Ames assay, Assay Code: SAL+*, Activation: With metabolic activation, Evaluation Type: Evaluation A (Pre-1980)
  mutagenic call: active; positive
[12]
  mutagenic call: inactive; negative

## C[C@@H](CC[C@H](C)OS(C)(=O)=O)OS(C)(=O)=O
Species/Cell Type: Rodents, Sex: Male, Assay Type: Dominant lethal test, Assay Code: DLT+, Evaluation Type: Evaluation A (Pre-1980)
  mutagenic call: active; positive
